Measurements published in ChEMBL document CHEMBL1201862, “PubChem BioAssay data set” (2004).
The source made the active and inactive calls.

Legend:
Caspase-3 = molecular target: T1, Caspase-3 (Homo sapiens, UniProt P42574); assay type: functional;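 note: Dose-response selectivity test against caspase-3 for candidate inhibitors of sentrin-specific proteases (SENPs)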
T1 sequence (P42574 whole entry): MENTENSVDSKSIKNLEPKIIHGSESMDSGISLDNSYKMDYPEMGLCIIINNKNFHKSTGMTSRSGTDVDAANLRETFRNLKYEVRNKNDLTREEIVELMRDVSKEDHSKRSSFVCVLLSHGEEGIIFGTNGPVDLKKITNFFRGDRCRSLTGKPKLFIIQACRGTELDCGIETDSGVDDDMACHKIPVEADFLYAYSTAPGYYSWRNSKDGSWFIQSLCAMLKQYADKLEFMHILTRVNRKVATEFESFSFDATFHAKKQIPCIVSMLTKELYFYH

[1] = molecular target: T2, Sentrin-specific protease 7 (Homo sapiens, UniProt Q9BQF6); assay type: functional;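 note: Luminescence-based dose-response confirmation of ultra-high-throughput screening hits, measuring inhibition of SENP7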
T2 sequence (Q9BQF6 whole entry): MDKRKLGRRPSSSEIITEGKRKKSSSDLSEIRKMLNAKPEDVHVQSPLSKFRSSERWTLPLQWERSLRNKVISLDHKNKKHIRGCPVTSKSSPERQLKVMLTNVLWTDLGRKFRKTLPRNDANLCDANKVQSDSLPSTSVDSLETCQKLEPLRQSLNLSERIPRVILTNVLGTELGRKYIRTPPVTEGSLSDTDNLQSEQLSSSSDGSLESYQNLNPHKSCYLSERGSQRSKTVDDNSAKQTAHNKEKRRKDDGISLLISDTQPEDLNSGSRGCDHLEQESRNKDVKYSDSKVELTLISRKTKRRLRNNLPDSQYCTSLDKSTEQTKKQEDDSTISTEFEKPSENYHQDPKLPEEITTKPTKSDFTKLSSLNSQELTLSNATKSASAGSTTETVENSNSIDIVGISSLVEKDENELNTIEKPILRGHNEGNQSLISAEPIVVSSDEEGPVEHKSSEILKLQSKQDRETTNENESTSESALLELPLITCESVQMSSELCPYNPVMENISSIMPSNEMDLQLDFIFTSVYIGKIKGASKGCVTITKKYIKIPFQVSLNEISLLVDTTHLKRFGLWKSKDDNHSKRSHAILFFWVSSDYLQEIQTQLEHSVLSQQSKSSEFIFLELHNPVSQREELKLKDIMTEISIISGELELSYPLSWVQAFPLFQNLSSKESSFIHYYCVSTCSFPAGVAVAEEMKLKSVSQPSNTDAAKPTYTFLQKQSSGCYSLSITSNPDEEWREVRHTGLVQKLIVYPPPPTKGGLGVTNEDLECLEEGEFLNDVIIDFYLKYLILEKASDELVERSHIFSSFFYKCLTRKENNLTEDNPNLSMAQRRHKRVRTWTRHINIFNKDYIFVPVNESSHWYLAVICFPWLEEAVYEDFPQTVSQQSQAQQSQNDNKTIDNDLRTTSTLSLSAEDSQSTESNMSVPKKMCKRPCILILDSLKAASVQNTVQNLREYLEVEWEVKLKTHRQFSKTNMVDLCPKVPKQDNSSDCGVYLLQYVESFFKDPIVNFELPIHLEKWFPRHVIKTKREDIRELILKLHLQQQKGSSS

[2] = molecular target: T3, Sentrin-specific protease 8 (Homo sapiens, UniProt Q96LD8); assay type: functional;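 note: kinetic enzyme assay of SENP8 cleaving a Nedd8 protein substrate, dose-response confirmation of screening hits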
T3 sequence (Q96LD8 whole entry): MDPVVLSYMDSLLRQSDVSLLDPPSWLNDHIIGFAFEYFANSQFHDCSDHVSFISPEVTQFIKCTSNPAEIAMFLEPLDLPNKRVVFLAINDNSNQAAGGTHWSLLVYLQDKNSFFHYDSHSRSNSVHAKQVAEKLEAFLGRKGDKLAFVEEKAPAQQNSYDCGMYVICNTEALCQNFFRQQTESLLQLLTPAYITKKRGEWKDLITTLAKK

[3] = molecular target: 1-phosphatidylinositol 4,5-bisphosphate phosphodiesterase beta-3 (Homo sapiens, UniProt Q01970); assay: Fluorescence-based biochemical high throughput dose response assay to identify inhibitors of phospholipase C isozymes (PLC-B3).
1-phosphatidylinositol 4,5-bisphosphate phosphodiesterase beta-3, sequence (Q01970 whole entry): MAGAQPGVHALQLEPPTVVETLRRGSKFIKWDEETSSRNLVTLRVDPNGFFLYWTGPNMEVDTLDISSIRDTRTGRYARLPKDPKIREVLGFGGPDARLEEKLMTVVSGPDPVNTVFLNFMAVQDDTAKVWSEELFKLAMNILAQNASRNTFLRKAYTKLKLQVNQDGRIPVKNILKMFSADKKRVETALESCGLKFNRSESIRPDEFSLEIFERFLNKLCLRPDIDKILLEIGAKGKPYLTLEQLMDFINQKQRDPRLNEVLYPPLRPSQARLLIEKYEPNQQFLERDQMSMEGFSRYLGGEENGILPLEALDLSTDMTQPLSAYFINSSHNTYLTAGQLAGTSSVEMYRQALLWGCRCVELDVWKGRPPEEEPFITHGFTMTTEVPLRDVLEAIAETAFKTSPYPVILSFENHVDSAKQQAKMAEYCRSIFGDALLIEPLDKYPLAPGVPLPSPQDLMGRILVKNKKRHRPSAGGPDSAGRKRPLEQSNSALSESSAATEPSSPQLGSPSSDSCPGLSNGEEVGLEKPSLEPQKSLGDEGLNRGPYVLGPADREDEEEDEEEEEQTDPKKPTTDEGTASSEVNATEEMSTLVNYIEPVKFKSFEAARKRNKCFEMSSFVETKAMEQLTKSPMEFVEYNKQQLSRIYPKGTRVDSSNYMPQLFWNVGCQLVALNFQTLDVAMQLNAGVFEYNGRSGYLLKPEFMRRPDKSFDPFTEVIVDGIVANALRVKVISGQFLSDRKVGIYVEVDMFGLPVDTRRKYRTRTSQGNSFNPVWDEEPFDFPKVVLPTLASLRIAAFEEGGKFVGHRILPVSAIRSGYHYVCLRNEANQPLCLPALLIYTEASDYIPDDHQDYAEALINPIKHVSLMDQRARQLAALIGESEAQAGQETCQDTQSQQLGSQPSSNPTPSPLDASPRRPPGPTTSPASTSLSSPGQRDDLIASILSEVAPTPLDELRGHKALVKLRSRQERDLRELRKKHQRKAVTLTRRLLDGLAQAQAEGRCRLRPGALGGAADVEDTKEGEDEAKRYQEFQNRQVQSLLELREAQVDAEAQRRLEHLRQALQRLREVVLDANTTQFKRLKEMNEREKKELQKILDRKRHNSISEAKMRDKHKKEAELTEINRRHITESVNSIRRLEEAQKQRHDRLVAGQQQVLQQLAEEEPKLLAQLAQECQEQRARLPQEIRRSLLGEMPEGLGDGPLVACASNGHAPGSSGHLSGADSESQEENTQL

[4] = molecular target: Likely tRNA 2'-phosphotransferase (Candida albicans (strain SC5314 / ATCC MYA-2876) (Yeast), UniProt Q5A7N4); assay: TPT1 tRNA phosphotransferase inhibitors, dose response, biochemical, fluorescence polarization (AID 2160)
Likely tRNA 2'-phosphotransferase, sequence (Q5A7N4 whole entry): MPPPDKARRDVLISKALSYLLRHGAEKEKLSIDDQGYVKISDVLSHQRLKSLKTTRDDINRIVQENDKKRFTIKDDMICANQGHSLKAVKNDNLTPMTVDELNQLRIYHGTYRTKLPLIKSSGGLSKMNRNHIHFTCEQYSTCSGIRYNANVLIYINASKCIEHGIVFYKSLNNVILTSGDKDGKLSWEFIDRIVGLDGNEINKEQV

[5] = inhibitors of firefly luciferase expression or activity, dose response, H4 neuroglioma cells, luminescence (AID 1990); assay type: functional, cell-based
[6] = Luminescence Cell-Based Dose Response HTS to Identify Inhibitors of 5'UTR Stem-Loop Driven Prion Protein mRNA Translation in H4 Neuroglioblastoma Cells. [Related pubchem assays: 1827 (Project Summary), 1813 (Primary HTS)]; assay type: functional
Streptococcus = assay: Group A Streptococcus viability loss, dose response, counter-screen for streptokinase expression inhibitor project, luminescence, BacTiterGlo (AID 1915); assay type: functional, organism-based;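 note: potency for reduction of bacterial viability or growth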

With `CCOC(=O)C1=C(C)OC2(O)c3ccccc3C(=O)C12O` (stereo not drawn) the IC50 (Caspase-3) was > 100 µM (inactive), the IC50 [1] was 3.27 µM (active) and the IC50 [2] was 0.284 µM (active).

In the case of `COC(=O)c1cc(C)nc2c1C(=O)C(=O)C=C2N1CCOCC1`, the IC50 [3] is reported as > 123 µM (inactive).

With `NS(=O)(=O)c1cc(C(=O)NC2CCSc3ccccc32)ccc1Cl` (stereo not drawn) the IC50 [4] was 4.4 µM (active).

In the case of `O=C1c2ccccc2C(=O)c2[nH]c(O)nc21`, the EC50 [5] is reported as 5.93 µM (active), the EC50 [6] is reported as 8.19 µM (active) and the EC50 (Streptococcus) is reported as > 150 µM (not active).
